Usually pIC50 stands for the negative decadic logarithm of the IC50, by convention in mol/L.

1 compound from patent US11759454B2, “Diazole lactams” (CHEMOCENTRYX, INC., priority 2012, dated 2023) can be followed below.

pIC50: −log10 of the molar value.

One assay concerns the target T1, CCR1 (Homo sapiens, UniProt P32246).
T1 construct: host or cells: THP-1 cells (or freshly isolated monocytes)
T1 sequence (P32246 1-355): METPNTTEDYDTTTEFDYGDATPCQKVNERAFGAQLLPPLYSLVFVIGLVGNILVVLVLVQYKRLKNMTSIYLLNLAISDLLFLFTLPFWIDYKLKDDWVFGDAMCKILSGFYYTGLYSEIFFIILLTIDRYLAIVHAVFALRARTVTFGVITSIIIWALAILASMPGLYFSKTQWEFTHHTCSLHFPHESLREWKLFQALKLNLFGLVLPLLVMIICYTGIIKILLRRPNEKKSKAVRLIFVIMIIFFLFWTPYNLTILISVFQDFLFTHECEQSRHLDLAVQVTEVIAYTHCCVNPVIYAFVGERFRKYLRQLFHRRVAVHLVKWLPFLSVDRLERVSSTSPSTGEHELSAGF
The assay can be described thus: Chemotaxis assay (inhibition of CCR1 mediated migration). The assay is classed as cell-based. The conditions noted are these: chemotaxis of THP-1 or monocyte cells toward CCR1 chemokine ligand (MIP-1α, CCL15/leukotactin); read-out: Avg Mig IC50. The procedure:
THP-1 cells were obtained from ATCC (TIB-202) and cultured as a suspension in RPMI-1640 medium supplemented with 2 mM L-glutamine, 1.5 g/L sodium bicarbonate, 4.5 g/L glucose, 10 mM HEPES, 1 mM sodium pyruvate, 0.05% 2-mercaptoethanol and 10% FBS. Cells were grown under 5% CO2/95% air, 100% humidity at 37° C. and subcultured twice weekly at 1:5 (cells were cultured at a density range of 2×10^5 to 2×10^6 cells/mL) and harvested at 1×10^6 cells/mL. THP-1 cells express CCR1 and can be used in CCR1 binding and functional assays.
Chemotaxis assays were performed using 5 μm pore polycarbonate, polyvinylpyrrolidone-coated filters in 96-well chemotaxis chambers (Neuroprobe; Gaithersburg, Md.) using chemotaxis buffer (Hank's balanced salt solution (HBSS) and 1% FBS). CCR1 chemokine ligands (i.e., MIP-1α, CCL15/Leukotactin; R&D Systems; Minneapolis, Minn.) are use to evaluate compound mediated inhibition of CCR1 mediated migration. Other chemokines (i.e., SDF-1α; R&D Systems; Minneapolis, Minn.) are used as specificity controls. The lower chamber was loaded with 29 μl of chemokine (i.e., 0.1 nM CCL15/Leukotactin) and varying amounts of compound; the top chamber contained 100,000 THP-1 or monocyte cells in 20 μl. The chambers were incubated 1-2 hours at 37° C., and the number of cells in the lower chamber quantified either by direct cell counts in five high powered fields per well or by the CyQuant assay (Molecular Probes), a fluorescent dye method that measures nucleic acid content and microscopic observation.
One of the primary functions of chemokines is their ability to mediate the migration of chemokine receptor-expressing cells, such as white blood cells. To confirm that a compound of interest inhibited not only CCR1 specific binding and signaling (at least as determined by calcium mobilization assays), but also CCR1 mediated migration, a chemotaxis assay was employed. THP-1 myelomonocytic leukemia cells, which resemble monocytes, as wells as freshly isolated monocytes, were used as targets for chemoattraction by CCR1 chemokine ligands (i.e., MIP-1α, CCL15/leukotactin). Cells were placed in the top compartment of a microwell migration chamber, while MIP-1α (or other potent CCR1 chemokine ligand) and increasing concentrations of a compound of interest was loaded in the lower chamber. […] To ascertain a compound of interest's affinity for CCR1 as well as to confirm its ability to inhibit CCR1 mediated cell migration, inhibitory activity was titered over a 1×10^−10 to 1×10^−4 M range of compound concentrations in this chemotaxis assay. In this assay, the amount of compound was varied; while cell number and chemokine agonist concentrations were held constant. After the chemotaxis chambers were incubated 1-2 hours at 37° C., the responding cells in the lower chamber were quantified by labeling with the CyQuant assay (Molecular Probes), a fluorescent dye method that measures nucleic acid content, and by measuring with a Spectrafluor Plus (Tecan). The computer program Prism from GraphPad, Inc. (San Diego, Calif.) was used to calculate IC50 values. IC50 values are those compound concentrations required to inhibit the number of cells responding to a CCR1 agonist by 50%.

The subject of assay [1] is inflammatory cells recruited to the inflamed synovial fluid of the knee joints. The assay is described as follows: Rabbit model of destructive joint inflammation (rabbit LPS study). It counts as in vivo. The conditions noted are these: female New Zealand rabbits, intra-articular LPS 10 ng, oral dosing in 1% methocel 2 h before and 4 h after LPS, lavage at 16 h. The procedure: a) Rabbit Model of Destructive Joint Inflammation
A rabbit LPS study was conducted essentially as described in Podolin, et al. J. Immunol. 169(11):6435-6444 (2002). Female New Zealand rabbits (approximately 2 kilograms) were treated intra-articularly in both knees with LPS (10 ng). The compound of interest, for example 1.016, (formulated in 1% methocel) or vehicle (1% methocel) was dosed orally at a 5 ml/kg dose volume at two times (2 hours before the intra-articular LP S injection and 4 hours after the intra-articular LP S injection). Sixteen hours after the LP S injection, knees were lavaged and cells counts were performed. Beneficial effects of treatment were determined by reduction in the number of inflammatory cells recruited to the inflamed synovial fluid of the knee joints.

`CC(C)c1c(N2CCC(n3cnc(C(F)(F)F)c3)C2=O)cnn1-c1ccc(F)cc1` (centres unmarked) [Compound 1.016]: on CCR1, the pIC50 was 4.70 to 7.00. Further, the “reduction in the number of inflammatory cells recruited to the inflamed synovial fluid of the knee joints” value in assay [1] is on record as “significant reduction in recruited inflammatory cells”.
